# Assay results published in article PMC5374206, “Anti-bacterial and Anti-biofilm Evaluation of Thiazolopyrimidinone Derivatives Targeting the Histidine Kinase YycG Protein of Staphylococcus epidermidis” (Frontiers in Microbiology, 2017).
# Like-named read-outs stand apart in the source and are kept apart here.
# Tests used:
# [1] = biological target: T1, ArlS' protein (Staphylococcus epidermidis, UniProt Q5HPC4); test: Inhibition of ArlS' autophosphorylation (Kinase-Glo Luminescent Kinase Assay); format: biochemical, S. epidermidis; conditions: for Inhibition of ArlS’ phosphorylation / Luminescence: 200 μM derivative, 2 μg purified protein, 4 μM ATP; for inhibitory effect on the autophosphorylation of ArlS': highest concentration 200 μM, result in words
# T1 construct: made in house
# T1 sequence (Q5HPC4 240-456): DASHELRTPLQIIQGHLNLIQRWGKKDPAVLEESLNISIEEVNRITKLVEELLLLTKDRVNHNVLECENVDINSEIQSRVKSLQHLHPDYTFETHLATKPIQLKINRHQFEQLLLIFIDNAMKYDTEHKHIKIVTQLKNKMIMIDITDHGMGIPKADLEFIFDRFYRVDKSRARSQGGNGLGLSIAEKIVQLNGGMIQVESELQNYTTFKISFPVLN
# [2] = tested on: S. epidermidis ATCC 35984; test: MIC and MBC tube-dilution assay; format: cell-based; conditions: Staphylococcus epidermidis; for MBC: ATCC35984, 99.9% reduction of inoculum; for MIC: ATCC35984, MHB, 16–20 h
# Protocol: (§1) The MIC assays of the derivatives of compound 5 against S. epidermidis, S. aureus, MRSA and E. coli were performed by using the methods described previously by Wiegand et al. ([2008]). In brief, two-fold serial dilutions of the derivatives were prepared in tubes containing 4 mL MHB medium, yielding final concentrations from 200 to 0.78 μM. Bacterial cultures were grown overnight and adjusted so that the bacterial suspension turbidity was equivalent to a 0.5 McFarland standard (~1 × 10^8 CFU/mL) and further diluted to 1:200 into MHB medium. The contents in the tubes were mixed thoroughly and incubated at 37°C with shaking at 220 rpm for 16–20 h. The MIC endpoint was defined as the lowest concentration at which there was no visible growth in the tubes. The MBC values were assessed by plating 100 μL samples from each negative (no visible bacterial growth) culture tube from the MIC assays onto blank MHB agar plates. After incubation at 37°C for 24 h, the bacterial colonies on the plates were counted. The MBC was the concentration at which a 99.9% reduction of the original inoculum was observed (Pridmore et al., [2011]). In this assay, all the experiments were performed three times.
# [3] = tested on: S. aureus ATCC 49230; test: MIC tube-dilution assay; format: cell-based; conditions: Staphylococcus aureus, ATCC49230
# Protocol: as §1
# [4] = tested on: S. epidermidis ATCC 12228; test: MIC tube-dilution assay; format: cell-based; conditions: Staphylococcus epidermidis, ATCC12228
# Protocol: as §1
# [5] = tested on: E. coli ATCC 25922; test: MIC tube-dilution assay; format: cell-based, Escherichia coli; conditions: E. coli ATCC29522 (head), highest concentration used 200 μM
# Protocol: as §1
# [6] = tested on: methicillin-resistant S. aureus (MRSA) clinical isolates; test: MIC and MBC against clinical MRSA isolates; format: cell-based; conditions: Staphylococcus aureus
# Protocol: S. epidermidis ATCC 12228 (biofilm negative), S. epidermidis ATCC 35984 (biofilm positive), S. aureus ATCC 49230 and Escherichia coli ATCC 25922 were used in this study. Six clinical methicillin-resistant S. aureus (MRSA) isolates were collected from the Department of Clinical Laboratory, Shanghai General Hospital, School of Medicine, Shanghai Jiaotong University, China. Staphylococcal strains were grown in tryptic soy broth (TSB; Oxoid Ltd., Basingstoke, England), and E. coli strains were grown in Luria-Bertani broth medium. Mueller-Hinton broth (MHB; Oxoid Ltd., Basingstoke, England) was used for antimicrobial susceptibility testing. Vancomycin and ampicillin were obtained from the Sigma Chemical Co. (St Louis, MO, USA).
# as §1
# [7] = tested on: S. epidermidis ATCC 35984; test: Time-kill assay against fast-growing S. epidermidis; format: cell-based, Staphylococcus epidermidis; conditions: 4 × MIC; within/after 1 h; inoculum ~1 × 10^7 CFU/mL; MHB
# Protocol: Suspensions of S. epidermidis (1 × 10^7 CFU/mL) were prepared and separately treated with the derivatives of compound 5 or vancomycin at concentrations of 4 × MIC in fresh MHB. Time-kill experiments were performed at 37°C with shaking at 220 rpm under aerobic conditions. Aliquots (1 mL) were removed from the culture medium at different time points (0, 1, 3, 5, 8, and 24 h), serially diluted and 100 μL of each of the dilutions plated out onto tryptic soy agar. After incubating at 37°C for 24 h, emergent bacterial colonies were counted, and the activity of the derivatives against fast-growing S. epidermidis cells was determined by plotting log10 colony counts (CFU/mL) against time. Bactericidal activity was defined as a 3-log10 decrease in CFU/mL. This assay was performed in triplicate and similar results were obtained.
# [8] = Cytotoxicity MTT assay; format: cell-based; conditions: African green monkey, Vero cells, highest concentration tested 200 μM
# Protocol: A Cell Proliferation Kit I (MTT; Roche, Indianapolis, USA) was used to detect the cytotoxicity of the derivatives against Vero cells. Vero cells were added to 96-well microtiter plates at a concentration of 5 × 10^4 cells/well in 100 μL of culture medium. After 24 h, culture medium was replaced by 100 μL serial dilutions of the derivatives (0.78–100 μM) and the cells were incubated for 4 h in an atmosphere of 5% CO2, then 10 μL of the MTT stock solution was added to each well and the plate returned to the 37°C incubator for 4 h. Subsequent to the incubation, the purple formazan salts were dissolved in DMSO, and the absorbance of each well was measured at wavelengths of 595 nm (test) and 655 nm (reference). Cells treated with the solvent (0.1% DMSO) were used as a blank control. The concentration of the derivatives that produced a 50% cytotoxicity effect on Vero cells (CC50) was calculated using Origin v8.0 software (Origin Lab, Northampton, USA).
# [9] = Erythrocyte hemolysis assay; format: cell-based; conditions: human, erythrocytes (5% suspension), 37°C; for hemolysis at 1 h, 200 µM: at 200 μM; for hemolysis at 1 h: at MIC (against S epidermidis ATCC 35984)
# Protocol: Hemolytic activities of the derivatives were measured on healthy human erythrocytes. A pure suspension of erythrocytes was obtained by washing a blood sample with sterile 0.9% NaCl saline solution. Erythrocytes were resuspended in normal saline to give a 5% solution, then treated with MIC, 4 × MIC or 200 μM of the derivatives for 1 h at 37°C in 96-well microtiter plates. After the incubation and centrifugation at 1,000 g for 10 min, supernatants were transferred to another sterile plate and the absorbance at 570 nm was measured on a spectrophotometric microplate reader. A positive control (100% hemolysis) and a negative control (0% hemolysis) were achieved by incubating with 1% Triton-X 100 and 0.1% DMSO, respectively. Each assay was performed in triplicate and repeated three times.
# [10] = Escherichia coli, ATCC 25922 / ATCC 29522
# [11] = MRSA strain 66, ST239, read-out: MIC
# [12] = MRSA strain 69, ST217, read-out: MIC
# [13] = MRSA strain 141, ST5, read-out: MIC
# [14] = MRSA strain 226, ST59, read-out: MIC
# [15] = MRSA strain 258, ST239, read-out: MIC
# [16] = MRSA strain 260, ST764, read-out: MIC
# [17] = range over six isolates, read-out: MICs against six MRSA clinical isolates
smiles,measurement,setting,value
"CCOC(=O)C1=C(c2ccccc2)N=c2sc(=Cc3ccc(-c4cccc(C(=O)O)c4)o3)c(=O)n2C1c1ccc(F)cc1 (centres unmarked) [H5-32, 2-[5-(3-carboxy-phenyl)-furan-2-ylmethylene]-5-(4-fluoro-phenyl)-3-oxo-7-phenyl-2,3-dihydro-5H-thiazolo[3,2-a]pyrimidine-6-carboxylic acid ethyl ester]",Inhibition of ArlS’ phosphorylation,[1],-5.9%
same,inhibitory effect on the autophosphorylation of ArlS',[1],None of them showed an inhibitory effect
same,MBC,[2],100 µM
same,MIC,[2],3.13 µM
same,MIC,[3],3.13 µM
same,MIC,[4],6.25 µM
same,MIC,[5],>200 µM
same,MIC,[5]; [10],> 200 µM
same,MBC,"[6]; MRSA strain 66, ST239",100 µM
same,MIC,[6]; [11],3.13 µM
same,MBC,"[6]; MRSA strain 69, ST217",50 µM
same,MIC,[6]; [12],3.13 µM
same,MBC,"[6]; MRSA strain 141, ST5",100 µM
same,MIC,[6]; [13],6.25 µM
same,MBC,"[6]; MRSA strain 226, ST59",50 µM
same,MIC,[6]; [14],6.25 µM
same,MBC,"[6]; MRSA strain 258, ST239",200 µM
same,MIC,[6]; [15],3.13 µM
same,MBC,"[6]; MRSA strain 260, ST764",100 µM
same,MIC,[6]; [16],6.25 µM
same,MIC,[6]; [17],3.13 to 6.25 µM
same,reduction in CFU/mL,[7],3 log
same,CC50 at 4 h,[8],> 200 µM
same,"hemolysis at 1 h, 200 µM",[9],0.24 ± 0.05%
same,hemolysis at 1 h,[9],0.15 ± 0.05%
"O=C(O)c1cccc(-c2ccc(C=c3sc4n(c3=O)C(c3ccc(F)cc3)C=C(c3ccccc3)N=4)o2)c1 (centres unmarked) [H5-33, 3-{5-[5-(4-fluoro-phenyl)-3-oxo-7-phenyl-5H-thiazolo [3,2-a]pyrimidin-2-ylidenemethyl]-furan-2-yl}-benzoic acid]",Inhibition of ArlS’ phosphorylation,[1],-5.1%
same,Luminescence,[1],17786 + 382 RLU
same,inhibitory effect on the autophosphorylation of ArlS',[1],None of them showed an inhibitory effect
same,MBC,[2],12.5 µM
same,MIC,[2],3.13 µM
same,MIC,[3],3.13 µM
same,MIC,[4],3.13 µM
same,MIC,[5],>200 µM
same,MIC,[5]; [10],> 200 µM
same,MBC,"[6]; MRSA strain 66, ST239",200 µM
same,MIC,[6]; [11],6.25 µM
same,MBC,"[6]; MRSA strain 69, ST217",50 µM
same,MIC,[6]; [12],6.25 µM
same,MBC,"[6]; MRSA strain 141, ST5",200 µM
same,MIC,[6]; [13],6.25 µM
same,MBC,"[6]; MRSA strain 226, ST59",200 µM
same,MIC,[6]; [14],6.25 µM
same,MBC,"[6]; MRSA strain 258, ST239",200 µM
same,MIC,[6]; [15],6.25 µM
same,MBC,"[6]; MRSA strain 260, ST764",200 µM
same,MIC,[6]; [16],6.25 µM
same,MIC,[6]; [17],3.13 to 6.25 µM
same,reduction in CFU/mL,[7],3 log
same,CC50 at 4 h,[8],> 200 µM
same,"hemolysis at 1 h, 200 µM",[9],0.32 ± 0.05%
same,hemolysis at 1 h,[9],0.15 ± 0.06%
"CCOC(=O)C1=C(c2ccccc2)N=c2sc(=Cc3ccc(-c4ccc(C(=O)O)cc4)o3)c(=O)n2C1c1ccc(Cl)cc1 (centres unmarked) [H5-34, 2-[5-(4-carboxy-phenyl)-furan-2-ylmethylene]-5-(4-chloro-phenyl)-3-oxo-7-phenyl-2,3-dihydro-5H-thiazolo[3,2-a]pyrimidine-6-carboxylic acid ethyl ester]",Inhibition of ArlS’ phosphorylation,[1],-5.6%
same,Luminescence,[1],17747 + 622 RLU
same,inhibitory effect on the autophosphorylation of ArlS',[1],None of them showed an inhibitory effect
same,MBC,[2],25 µM
same,MIC,[2],3.13 µM
same,MIC,[3],3.13 µM
same,MIC,[4],3.13 µM
same,MIC,[5],>200 µM
same,MIC,[5]; [10],> 200 µM
same,MBC,"[6]; MRSA strain 66, ST239",200 µM
same,MIC,[6]; [11],3.13 µM
same,MBC,"[6]; MRSA strain 69, ST217",50 µM
same,MIC,[6]; [12],6.25 µM
same,MBC,"[6]; MRSA strain 141, ST5",200 µM
same,MIC,[6]; [13],6.25 µM
same,MBC,"[6]; MRSA strain 226, ST59",100 µM
same,MIC,[6]; [14],6.25 µM
same,MBC,"[6]; MRSA strain 258, ST239",200 µM
same,MIC,[6]; [15],6.25 µM
same,MBC,"[6]; MRSA strain 260, ST764",200 µM
same,MIC,[6]; [16],6.25 µM
same,MIC,[6]; [17],3.13 to 6.25 µM
same,reduction in CFU/mL,[7],3 log
same,CC50 at 4 h,[8],> 200 µM
same,"hemolysis at 1 h, 200 µM",[9],0.19 ± 0.01%
same,hemolysis at 1 h,[9],0.22 ± 0.57%
